Data on one molecule can be found in patent publication US20130304029A1, “LOADING AND RELEASE OF WATER-INSOLUBLE DRUGS” (Boston Scientific Scimed, Inc., priority 1997, published 2013).

Data set [1] in a line: Paclitaxel content of polyurethane coated stents by extraction in dichloromethane. Conditions: 30 mg/ml paclitaxel concentration. The data set is classed as physicochemical. The method, then:
Slotted tube stainless steel stents are coated with polyurethane by spraying a 1 wt % solution of CHRONOFLEX® polyurethane (made by CT Biomaterials) in tetrahydrofuran directly onto the stent surface. The coated stents are dried in a vacuum oven for three hours at 70° C.
Each polyurethane coated stent is placed in a vial, which is filled to maximum volume (1.5 ml) with a solution of paclitaxel in ethanol, and sealed. The stent is stored in the vial for three days at room temperature. The stent is then removed from the vial and dried for one hour at 65° C.
The above procedure is conducted using solutions of varying concentrations. Each stent is analyzed for paclitaxel content by extraction in dichloromethane solvent. Samples 1 and 2 were obtained using a paclitaxel concentration of 10 mg/ml, samples 3 and 4 using a 20 mg/ml solution and sample 5 and 6 using a 30 mg/ml solution.
Seven polyurethane coated stents are loaded using a 30 mg/ml paclitaxel solution, removed and dried as set forth above. Paclitaxel from four of the stents is extracted in dichloromethane solvent.

A short description of data set [2]: Saturation concentration of paclitaxel in ethanol. The data set is classed as physicochemical. The method, then: Nevertheless, the 30 mg/ml paclitaxel concentration is chosen for release studies as it produces the maximum paclitaxel loading (21-23%), while still being sufficiently below the saturation concentration for paclitaxel in ethanol (39 mg/ml).
The nature of data set [3]: In-vivo delivery of paclitaxel from polyacrylic acid-based coated balloon catheter. Further details: species or system pig. The conditions noted are these: for Amount of paclitaxel released in bloodstream: loaded minus extracted; for Amount of paclitaxel extracted from balloon after delivery: polyacrylic acid-based coated balloon catheter. The method, then: A 9.8 mg/ml solution of radio-labeled paclitaxel in chloroform is prepared. A total of 50 μl of the solution is applied via pipet to a balloon catheter having a polyacrylic acid-based coating. The paclitaxel from the coated balloon catheter is then released in-vivo to porcine arteries. After release for a predetermined amount of time, the paclitaxel remaining in the coating is extracted using two sequential ethanol washes. The amount of paclitaxel released in the pig bloodstream, as calculated from the amount of paclitaxel loaded into the coating minus that extracted from the coating after delivery, is shown in Table II.

For `CC(=O)O[C@H]1C(=O)[C@@]2(C)[C@H]([C@H](OC(=O)c3ccccc3)[C@]3(O)C[C@H](OC(=O)[C@H](O)[C@@H](NC(=O)c4ccccc4)c4ccccc4)C(C)=C1C3(C)C)[C@]1(OC(C)=O)CO[C@@H]1C[C@@H]2O` [paclitaxel], in data set [1], the maximum paclitaxel loading is 21-23%. In data set [2], the “saturation concentration for paclitaxel in ethanol” value stood at 39 mg/mL. For the same molecule, in data set [3] (1 minute in bloodstream), the “% of paclitaxel released in bloodstream” value amounted to 63%, the “Amount of paclitaxel released in bloodstream” value was determined as 307 µg and the “Amount of paclitaxel extracted from balloon after delivery” value worked out at 182 ± 1 µg. Further, in data set [3] (5 minutes in bloodstream), the “% of paclitaxel released in bloodstream” value is given as 68%, the “Amount of paclitaxel released in bloodstream” value came to 330 µg and the “Amount of paclitaxel extracted from balloon after delivery” value was found to be 160 ± 30 µg.
